Reference: patent US8993565B2, “(6-oxo-1,6-dihydropyrimidin-2-yl)amide derivatives, preparation thereof and pharmaceutical use thereof as AKT(PKB) phosphorylation inhibitors” (Sanofi, priority 2009, dated 2015)

System: AKT protein phosphorylated on serine 473 (pAKT-S473)
Experiment: Study of pAKT expression in PC3 human prostate carcinoma cells measured by western blotting (Test A)
Format: cell-based
Details: PC-3, inhibition of AKT phosphorylation (pAKT-S473), 1 to 2 hours incubation, absolute IC50, mean of two experiments
Description: The inhibitory activity of the molecules on AKT phosphorylation is measured either by western blotting using the technique described below, or by the MSD Multi-spot Biomarker detection technique from Meso Scale Discovery also described below.
Study of pAKT Expression in PC3 Human Prostate Carcinoma Cells Measured by Western Blotting (Test A):
On day 2, the cells are incubated in the presence or absence of the test products for 1 to 2 hours at 37° C. in the presence of 5% CO2. The molecules, diluted in dimethyl sulphoxide (DMSO Sigma #D2650), are added from a 10-times concentrated stock solution, the final percentage of DMSO being 0.1%. The molecules are tested either at a single concentration of less than or equal to 10 μM, or at increasing concentrations in a range that can extend from less than 1 nM to 10 μM.
After this incubation, the cells are lysed for the preparation of the proteins.
The lysate is centrifuged for 10 min at 6000 rpm. 155 μl of supernatant are recovered. 150 μl are incubated for denaturation for 5 min at 95° C. in the presence of 4× NuPAGE LDS Sample Buffer diluted 4-fold (InVitrogen ref NP0007) and of 10× NuPAGE Sample Reducing Agent diluted 10-fold (InVitrogen ref NP0009). These samples are then frozen at −20° C.
The gel is then transferred on to an Invitrolon PVDF membrane (Invitrogen #LC2007) permeabilised beforehand and for a few seconds in ethanol (Ethanol Fischer Scientific #E/0600DF/15).
The transfer is carried out in a Biorad tank at 30 volts overnight or at 60 volts for 3 hours, in the presence of 20× NUPAGE Transfer Buffer diluted 20-fold (InVitrogen ref NP0006).
The membrane is then saturated in saturating solution composed of TBS (10× Tris Buffered Saline, Sigma #T5912, diluted 10-fold), 0.1% Tween (Sigma #P5927) and 3% BSA (Bovine Albumin Serum Fraction V, Sigma #A4503) for 6 h after overnight transfer or else for 1 h after transfer for a period of 3 h.
Two rinses for min in washing solution composed of TBS and 0.1% Tween 20 are carried out before hybridisation of the secondary antibodies.
The secondary antibodies are diluted 110000th for the rabbit anti-Mouse IgG HRP antibody (W402 Promega) and to 110000th for the goat anti-Rabbit IgG HRP antibody (W401 Promega) in saturating solution, and then shaken for 1 h at ambient temperature.
Two rinses for 30 min in washing solution are carried out and then a rinse for 5 min in H2O is carried out in order to eliminate the remaining Tween 20.
The luminescence is read with the FujiFilm device (Ray Test).
The FUJI device measures the total luminescence signal obtained (AU) for each band selected. It then subtracts the background noise (BG) proportional to the size of the band selected (Area), said background noise being calculated from a specific background noise band, with a view to obtaining the specific signal (AU-BG) for each band. The band obtained in the absence of product and in the presence of 0.1% DMSO is considered to be the 100% signal. The software calculates the % specific activity (Ratio) obtained for each band selected as a function of this 100% signal. The percentage inhibition is calculated for each concentration according to the formula (100%−Ratio).
Two independent experiments make it possible to calculate the mean of the percentages of inhibition obtained at a given concentration for the products tested only at one concentration.
Two independent experiments make it possible to calculate the mean of the IC50s.

Row | SMILES | IC50 [nM]
1 | CC(C)c1cccc(NC(=O)Cc2nc(N3CCOCC3)cc(=O)[nH]2)c1 [Example 22, 2-[4-(morpholin-4-yl)-6-oxo-1,6-dihydropyrimidin-2-yl]-N-[3-(propan-2-yl)phenyl]acetamide] | 350
2 | COc1cc(NC(=O)Cc2nc(N3CCOCC3)cc(=O)[nH]2)ccc1F [Example 8, N-(4-fluoro-3-methoxyphenyl)-2-[4-(morpholin-4-yl)-6-oxo-1,6-dihydropyrimidin-2-yl]acetamide] | 318
3 | Cc1ccccc1NC(=O)Cc1nc(N2CCOCC2)cc(=O)[nH]1 [Example 10, N-(2-methylphenyl)-2-[4-(morpholin-4-yl)-6-oxo-1,6-dihydropyrimidin-2-yl]acetamide] | 3500
4 | O=C(Cc1nc(N2CCOCC2)cc(=O)[nH]1)Nc1cccc(C(=O)O)c1 [Example 21, 3-({[4-(morpholin-4-yl)-6-oxo-1,6-dihydropyrimidin-2-yl]acetyl}amino)benzoic acid] | 10000
5 | COc1cc(NC(=O)C(C)c2nc(N3CCOCC3)cc(=O)[nH]2)ccc1F (centres unmarked) [Example 39, N-(4-fluoro-3-methoxyphenyl)-2-[4-(morpholin-4-yl)-6-oxo-1,6-dihydropyrimidin-2-yl]propanamide] | 1760
6 | O=C(Cc1nc(N2CCOCC2)cc(=O)[nH]1)Nc1cccc(OCCO)c1 [Example 55, N-[3-(2-hydroxyethoxy)phenyl]-2-[4-(morpholin-4-yl)-6-oxo-1,6-dihydropyrimidin-2-yl]acetamide] | 10000
7 | O=C(Cc1nc(N2CCOCC2)cc(=O)[nH]1)Nc1ccc(F)cc1 [Example 2, N-(4-fluorophenyl)-2-[4-(morpholin-4-yl)-6-oxo-1,6-dihydropyrimidin-2-yl]acetamide] | 321
8 | Cc1cccc(NC(=O)Cc2nc(N3CCOCC3)cc(=O)[nH]2)c1C [Example 40, N-(2,3-dimethylphenyl)-2-[4-(morpholin-4-yl)-6-oxo-1,6-dihydropyrimidin-2-yl]acetamide] | 1490
9 | Cc1cccc(NC(=O)Cc2nc(N3CCOCC3)cc(=O)[nH]2)c1 [Example 23, N-(3-methylphenyl)-2-[4-(morpholin-4-yl)-6-oxo-1,6-dihydropyrimidin-2-yl]acetamide] | 39
10 | COC(=O)c1cc(NC(=O)Cc2nc(N3CCOCC3)cc(=O)[nH]2)ccc1F [Example 57, methyl 2-fluoro-5-({[4-(morpholin-4-yl)-6-oxo-1,6-dihydropyrimidin-2-yl]acetyl}amino)benzoate] | 5860
11 | O=C(Cc1nc(N2CCOCC2)cc(=O)[nH]1)Nc1cc(F)c(F)c(F)c1 [Example 34, 2-[4-(morpholin-4-yl)-6-oxo-1,6-dihydropyrimidin-2-yl]-N-(3,4,5-trifluorophenyl)acetamide] | 609
12 | COc1cccc(NC(=O)Cc2nc(N3CCOCC3)cc(=O)[nH]2)c1 [Example 16, N-(3-methoxyphenyl)-2-[4-(morpholin-4-yl)-6-oxo-1,6-dihydropyrimidin-2-yl]acetamide] | 850
13 | O=C(Cc1nc(N2CCOCC2)cc(=O)[nH]1)Nc1cccc(I)c1 [Example 56, N-(3-iodophenyl)-2-[4-(morpholin-4-yl)-6-oxo-1,6-dihydropyrimidin-2-yl]acetamide] | 137
14 | O=C(Cc1nc(N2CCOCC2)cc(=O)[nH]1)Nc1ccc(F)c(F)c1 [Example 6, N-(3,4-difluorophenyl)-2-[4-(morpholin-4-yl)-6-oxo-1,6-dihydropyrimidin-2-yl]acetamide] | 23
15 | COC(=O)c1cccc(NC(=O)Cc2nc(N3CCOCC3)cc(=O)[nH]2)c1 [Example 20, methyl 3-({[4-(morpholin-4-yl)-6-oxo-1,6-dihydropyrimidin-2-yl]acetyl}amino)benzoate] | 1310

Continued by falling IC50, values first:

Row | IC50 [nM] | SMILES
16 | 6720 | O=C(Cc1nc(N2CCOCC2)cc(=O)[nH]1)Nc1ccc(F)cc1O [Example 50, N-(4-fluoro-2-hydroxyphenyl)-2-[4-(morpholin-4-yl)-6-oxo-1,6-dihydropyrimidin-2-yl]acetamide]
17 | 6460 | O=C(Cc1nc(N2CCOCC2)cc(=O)[nH]1)Nc1cc(F)ccc1O [Example 65, N-(5-fluoro-2-hydroxyphenyl)-2-[4-(morpholin-4-yl)-6-oxo-1,6-dihydropyrimidin-2-yl]acetamide]
18 | 2290 | N#Cc1cccc(NC(=O)Cc2nc(N3CCOCC3)cc(=O)[nH]2)c1 [Example 26, N-(3-cyanophenyl)-2-[4-(morpholin-4-yl)-6-oxo-1,6-dihydropyrimidin-2-yl]acetamide]
19 | 2210 | Cn1c(CC(=O)Nc2ccc(F)cc2)nc(N2CCOCC2)cc1=O [Example 67, N-(4-fluorophenyl)-2-[1-methyl-4-(morpholin-4-yl)-6-oxo-1,6-dihydropyrimidin-2-yl]acetamide]
20 | 1480 | O=C(Cc1nc(N2CCOCC2)cc(=O)[nH]1)Nc1cccc(C(F)(F)F)c1 [Example 17, 2-[4-(morpholin-4-yl)-6-oxo-1,6-dihydropyrimidin-2-y]-N-[3-(trifluoromethyl)phenyl]acetamide]
21 | 727 | O=C(Cc1nc(N2CCOCC2)cc(=O)[nH]1)Nc1ccccc1F [Example 9, N-(2-fluorophenyl)-2-[4-(morpholin-4-yl)-6-oxo-1,6-dihydropyrimidin-2-yl]acetamide]
22 | 549 | O=C(Cc1nc(N2CCOCC2)cc(=O)[nH]1)Nc1cccc(OC(F)(F)F)c1 [Example 43, 2-[4-(morpholin-4-yl)-6-oxo-1,6-dihydropyrimidin-2-yl]-N-[3-(trifluoromethoxy)phenyl]acetamide]
23 | 480 | O=C(Cc1nc(N2CCOCC2)cc(=O)[nH]1)Nc1cccc(OC(F)F)c1 [Example 38, N-[3-(difluoromethoxy)phenyl]-2-[4-(morpholin-4-yl)-6-oxo-1,6-dihydropyrimidin-2-yl]acetamide]
24 | 346 | O=C(Cc1nc(N2CCOCC2)cc(=O)[nH]1)Nc1ccc(F)c(C(F)(F)F)c1 [Example 47, N-[4-fluoro-3-(trifluoromethyl)phenyl]-2-[4-(morpholin-4-yl)-6-oxo-1,6-dihydropyrimidin-2-yl]acetamide]
25 | 308 | CC(C)Oc1cccc(NC(=O)Cc2nc(N3CCOCC3)cc(=O)[nH]2)c1 [Example 44, 2-[4-(morpholin-4-yl)-6-oxo-1,6-dihydropyrimidin-2-yl]-N-[3-(propan-2-yloxy)phenyl]acetamide]
26 | 227 | O=C(Cc1nc(N2CCOCC2)cc(=O)[nH]1)Nc1ccc(F)c(C2CC2)c1 [Example 52, N-(3-cyclopropyle-4-fluorophenyl)-2-[4-(morpholin-4-yl)-6-oxo-1,6-dihydropyrimidin-2-yl]acetamide]
27 | 171 | Cc1cc(NC(=O)Cc2nc(N3CCOCC3)cc(=O)[nH]2)ccc1F [Example 28, N-(4-fluoro-3-methylphenyl)-2-[4-(morpholin-4-yl)-6-oxo-1,6-dihydropyrimidin-2-yl]acetamide]
28 | 133 | O=C(Cc1nc(N2CCOCC2)cc(=O)[nH]1)N1CCc2ccccc21 [Example 51, 2-[2-(2,3-dihydro-1 H-indol-1-yl)-2-oxoethyl]-6-(morpholin-4-yl)pyrimidin-4(3H)-one]
29 | 116 | O=C(Cc1nc(N2CCOCC2)cc(=O)[nH]1)Nc1ccc(F)c(Cl)c1 [Example 29, N-(3-chloro-4-fluorophenyl)-2-[4-(morpholin-4-yl)-6-oxo-1,6-dihydropyrimidin-2-yl]acetamide]
30 | 102 | O=C(Cc1nc(N2CCOCC2)cc(=O)[nH]1)Nc1ccccc1 [Example 1, 2-[4-(morpholin-4-yl)-6-oxo-1,6-dihydropyrimidin-2-yl]-N-phenylacetamide]
31 | 100 | O=C(Cc1nc(N2CCOCC2)cc(=O)[nH]1)Nc1cccc(Cl)c1 [Example 3, N-(3-chlorophenyl)-2-[4-(morpholin-4-yl)-6-oxo-1,6-dihydropyrimidin-2-yl]acetamide]
32 | 93 | O=C(Cc1nc(N2CCOCC2)cc(=O)[nH]1)Nc1ccc(F)c(Br)c1 [Example 33, N-(3-bromo-4-fluorophenyl)-2-[4-(morpholin-4-yl)-6-oxo-1,6-dihydropyrimidin-2-yl]acetamide]
